Assay results published in US3956328A, “S-triazolo(1,5-a)pyridine derivative” (Kyorin Seiyaku Kabushiki Kaisha, priority 1973, dated 1976).
“And” between values parts separate entries of the source, which are not always exact repeats. Equal values may be shown once. “Also recorded” adds a separate entry of the source.

Tests used:
[1] = tested on: BSA induced asthma in guinea pigs; test: Inhibitory action on BSA-induced (experimentally allergic) asthma attack in passively sensitized guinea pigs; type: in vivo, guinea pig; parameters: key to z1 (statistical value vs non treatment): Mann-Whitney U z statistic, treated vs non-treated; conditions: for p (statistical significance vs non treatment) / z1 (statistical value vs non treatment) / p (present compound vs homochlorcyclizine) / z2 (statistical value, present compound vs homochlorcyclizine): severity; for z1 (statistical value vs non treatment) / z2 (statistical value, present compound vs homochlorcyclizine): Mann and Whitney U test
Protocol: The present compound is studied on asthma attacks induced by the antigen-antibody reaction in guinea pigs. The guinea pigs are sensitized passively by the injection of 0.1 to 0.3 ml /100g body weight of rabbit antiserum to BSA (bovine serum albumin) into the ear vein. Forty six hours after passive sensitization, the guinea pigs are orally given the tested compounds. Two hours after oral administration, the asthma attack is provoked by an aerosol injection (0.1 ml/min.) of 1% BSA solution in physiological saline into the plastic chamber in which the testing guinea pig is placed. The symptoms of the asthma attack are observed for 10 minutes and scored on the following shock indices. The shock indices are examined by the shock grades, No. of collapsed guinea pigs/No. of used animals and survival rate.
The shock grades are as follows:
1 slight stimulation of expiration
2 stimulation of expiration (labored expiration)
3 attack of singultation
4 the strongest attack of collapse and struggle
but recovery from collapse within 5 minutes
5 recovery from collapse within 5 to 10 minutes
6 interruption of expiration to death within 10
*Statistical comparisons were carried out with the Mann and Whitneys' U
z1 : The statistical value between non treatment and each tested
z2 : The statistical value between the present compound and […]

homologous PCA in rats [2] = test: Homologous PCA in Wistar rats; type: in vivo, rat (Wistar); conditions: for Inhibition % of extravasation of blue dye: Wistar, egg albumin, 30 min. before challenge, 72 hrs. after sensitization
From the text: (§1) Male wistar or SD rats are passively sensitized by Motas method (Immunology 7, 681, 1964) and challenged by the intravenous injection of wistar or SD rat antiserum to egg albumin or horse serum. The inhibitory action of the present compound on homologous PCA (induced by reaginlike, mast cell sensitizing antibody) is shown in Table 5.

ddN mice = test: Acute oral toxicity in mice; type: in vivo; conditions: acute oral
Protocol: (§2) That of homochlorcyclyzine used as a standard drug is reported to be 353 mg/kg for mice.

[3] = Acute oral toxicity in mice; type: in vivo; conditions: mouse, in vivo, po
Protocol: as §2

[4] = tested on: anti acetylcholinergic action; test: Anti cholinergic action
guinea pig ileum = test: Schultz-Dale reaction in guinea pig ileum sensitized actively with egg albumin; conditions: actively-sensitized guinea pig ileum
Protocol: Male guinea pigs are actively sensitized and their ileum preparations are treated by Schultz-Dales method (J. Pharmacol. Exp. Ther., 4, 167, 1913). […] These preceeding pharmacological properties of the present compound are due to triazolo [1,5-a]pyridine.

[5] = Acute oral toxicity in rats; conditions: rat, in vivo
Protocol: as §2

[6] = tested on: guinea pig tracheal chain strips; test: Anti histaminic action: histamine-induced contraction of guinea pig tracheal chain strips; conditions: 4×10^^-5 M; Tyrodes solution
[7] = tested on: heterologous PCA in guinea pigs; test: Heterologous passive cutaneous anaphylaxis (PCA) in guinea pigs; type: in vivo, guinea pig; conditions: 25 mg/kg po, 30 min. before challenge; rabbit antiserum to egg albumin
Protocol: Male guinea pigs are passively sensitized by the intradermal injection of rabbit antiserum to egg albumin and challenged by the intravenous injection of egg albumin 4 hrs. after the sensitization. The test compounds are orally given 30 min. before the challenge.

homologous PCA in rats [8] = test: Homologous PCA in SD rats; type: in vivo, rat (SD)
From the text: as §1

[9] = tested on: histamine-induced asthma attack; test: Inhibitory action on histamine-induced asthma attack in guinea pigs; type: in vivo, guinea pig; conditions: for z1 (statistical value): Mann and Whitney U test
Protocol: Inhibitory actions on histamine-induced asthma attack: Male guinea pigs, of about 300 g body weight are used. Asthma attack is provoked by an aerosol of 0.2% histamine dihydrochloride solution in physiological saline for 10 minutes. The inhibitory actions are examined by shock grades, No. of collapsed guinea pigs/No. of provoked guinea pigs and survival rate. The tested compounds are orally given 2 hrs. prior to spraying of histamine solution.
A/B: No. of collapsed guinea pigs/ No. of provoked guinea pigs.
Statistical comparisons were carried out with the Mann and Whtineys' U

[10] = antiserum 0.1 ml/100 g, 0.5 mg/kg p.o.
[11] = antiserum 0.1 ml/100 g, 1.0 mg/kg p.o.
[12] = antiserum 0.1 ml/100 g, 5.0 mg/kg p.o.
[13] = antiserum 0.2 ml/100 g, 5 mg/kg p.o.
[14] = antiserum 0.3 ml/100 g, 5 mg/kg p.o.
[15] = 2.50 mg/kg p.o. vs homochlorcyclizine (250 mg/kg (so in the source))

In the case of c1ccc(C(c2ccccc2)N2CCN(CCCc3nc4ccccn4n3)CC2)cc1 [the present compound, 2-[3-(4-diphenylmethyl-1-piperazinyl)propyl] -s-triazolo[1,5-a]pyridine], the severe asthma attack ([1]; 5 mg/kg dose) is reported as “suppresses completely severe asthma attack”, the “A/B: No. of collapsed / No. of provoked guinea pigs” value [1, 10] is reported as 3/6 and the “A/B: collapsed guinea pigs, percentage” value [1, 10] is reported as 50%. The “Survival rate (animals)” value [1, 10] was 5/6, the “Survival rate, percentage” value [1, 10] was 83.3% and the “A/B: No. of collapsed / No. of provoked guinea pigs” value [1, 11] was 4/10. For the same compound, the “A/B: collapsed guinea pigs, percentage” value [1, 11] was 40%, the “Survival rate (animals)” value [1, 11] was 10/10 and the “Survival rate, percentage” value [1, 11] was 100%. The “A/B: No. of collapsed / No. of provoked guinea pigs” value [1, 12] was 0/6, the “A/B: collapsed guinea pigs, percentage” value [1, 12] was 0% and the “Survival rate (animals)” value [1, 12] was 6/6. The “Survival rate, percentage” value [1, 12] was 100%, the “A/B: No. of collapsed / No. of provoked guinea pigs” value [1, 13] was 0/6 and the “A/B: collapsed guinea pigs, percentage” value [1, 13] was 0%. For the same compound, the “Survival rate (animals)” value [1, 13] was 6/6, the “Survival rate, percentage” value [1, 13] was 100% and the “A/B: No. of collapsed / No. of provoked guinea pigs” value [1, 14] was 0/5. For the same compound, the “A/B: collapsed guinea pigs, percentage” value [1, 14] was 0%, the “Survival rate (animals)” value [1, 14] was 5/5 and the “Survival rate, percentage” value [1, 14] was 100%. The “incidences of asthma attack vs non treated” value ([1]; more than 0.5 mg/kg dose) was “inhibits significantly”, the collapse ([1]; more than oral 5 mg/kg dose) was “completely inhibits collapse” and the “inhibitory action on asthma attack compared with homochlorcyclizine” value ([1]; oral) was “more significant; also recorded: prohibits the asthma attack more significantly than that of homochlorocyclizine”. The shock death ([1]; oral 1 mg/kg) was “inhibits shock death”, the “p (statistical significance vs non treatment)” value [1, 10] was under 0.01 and the “z1 (statistical value vs non treatment)” value [1, 10] was 2.618. The “p (statistical significance vs non treatment)” value [1, 11] was under 0.0001, the “z1 (statistical value vs non treatment)” value [1, 11] was 4.032 and the “p (statistical significance vs non treatment)” value [1, 12] was under 0.001. The “z1 (statistical value vs non treatment)” value [1, 12] was 3.686, the “p (present compound vs homochlorcyclizine)” value [1, 13] was under 0.04 and the “p (statistical significance vs non treatment)” value [1, 13] was under 0.0001. For the same compound, the “z1 (statistical value vs non treatment)” value [1, 13] was 4.112, the “z2 (statistical value, present compound vs homochlorcyclizine)” value [1, 13] was 2.067 and the “p (present compound vs homochlorcyclizine)” value [1, 14] was under 0.05. The “p (statistical significance vs non treatment)” value [1, 14] was under 0.001, the “z1 (statistical value vs non treatment)” value [1, 14] was 3.26 and the “z2 (statistical value, present compound vs homochlorcyclizine)” value [1, 14] was 2.008. The “inhibition of reaginlike, mast cell sensitizing antibody-induced PCA” value (homologous PCA in rats [2]; Wistar rat, oral) was “markedly inhibits”, the “Inhibition % of extravasation of blue dye” value (from here on “Inhibition %”) (homologous PCA in rats [2]; 25 mg/kg po) was 64.3% and the “Inhibition %” value (homologous PCA in rats [2]; 50 mg/kg po) was 88.8%. The “toxicity compared with homochlorcyclizine” value (ddN mice) was “lower toxicity than that of homochlorcyclizine”, the LD50 ([3]; female ddN mice, confidence limit 418-563 mg/kg) was 485 mg/kg and the LD50 ([3]; male ddN mice, confidence limit 507-768 mg/kg) was 625 mg/kg. For the same compound, the anti acetylcholinergic action [4] was “not found to have anti acetylcholinergic action”, the “inhibition of Schultz-Dale reaction” value (guinea pig ileum) was “markedly inhibits Schultz-Dale reaction” and the LD50 ([5]; male wistar rats, confidence limit 1,05l-1, 790 mg/kg) was 1370 mg/kg. The LD50 ([5]; po, female wistar rats) was under 450 mg/kg, the “inhibitory rate on histamine-induced contraction” value [6] was 124% and the “Inhibition %” value [7] was 57.8%. The “inhibition of reaginlike, mast cell sensitizing antibody-induced PCA” value (homologous PCA in rats [8]; SD rat, oral) was “markedly inhibits”, the “Inhibition %” value (homologous PCA in rats [8]; SD, horse serum, 100 mg/kg po, 3 hrs. before challenge, 48 hrs. after sensitization) was 94.8% and 94% and the “A/B: No. of collapsed / No. of provoked guinea pigs” value ([9]; 0.156 mg/kg p.o.) was 10/10. The “A/B: collapsed guinea pigs, number in parentheses (percentage)” value (“A/B: collapsed guinea pigs … (percentage)” for short) ([9]; 0.156 mg/kg p.o.) was 100, the “Survival rate (animals)” value ([9]; 0.156 mg/kg p.o.) was 0/10 and the “Survival rate, number in parentheses (percentage)” value (from here on “Survival rate … (percentage)”) ([9]; 0.156 mg/kg p.o.) was 0. For the same compound, the “A/B: No. of collapsed / No. of provoked guinea pigs” value ([9]; 0.313 mg/kg p.o.) was 10/10, the “A/B: collapsed guinea pigs … (percentage)” value ([9]; 0.313 mg/kg p.o.) was 100 and the “Survival rate (animals)” value ([9]; 0.313 mg/kg p.o.) was 10/10. For the same compound, the “Survival rate … (percentage)” value ([9]; 0.313 mg/kg p.o.) was 100, the “significance of difference from non treatment 1” value ([9]; 0.313 mg/kg p.o.) was “markedly significant difference” and the “z1 (statistical value)” value ([9]; 0.313 mg/kg p.o. vs non treatment 1) was over 5. The “A/B: No. of collapsed / No. of provoked guinea pigs” value ([9]; 0.625 mg/kg p.o.) was 9/10, the “A/B: collapsed guinea pigs … (percentage)” value ([9]; 0.625 mg/kg p.o.) was 90 and the “Survival rate … (percentage)” value ([9]; 0.625 mg/kg p.o.) was 100. The “significance of difference from non treatment 1” value ([9]; 0.625 mg/kg p.o.) was “markedly significant difference”, the “z1 (statistical value)” value ([9]; 0.625 mg/kg p.o. vs non treatment 1) was over 5 and the “A/B: No. of collapsed / No. of provoked guinea pigs” value ([9]; 1.25 mg/kg p.o.) was 4/10. The “A/B: collapsed guinea pigs … (percentage)” value ([9]; 1.25 mg/kg p.o.) was 40, the “Survival rate (animals)” value ([9]; 1.25 mg/kg p.o.) was 10/10 and the “Survival rate … (percentage)” value ([9]; 1.25 mg/kg p.o.) was 100. For the same compound, the “significance of difference from non treatment 1” value ([9]; 1.25 mg/kg p.o.) was “markedly significant difference”, the “z1 (statistical value)” value ([9]; 1.25 mg/kg p.o. vs non treatment 1) was over 5 and the “A/B: No. of collapsed / No. of provoked guinea pigs” value ([9]; 2.50 mg/kg p.o.) was 1/11. The “A/B: collapsed guinea pigs … (percentage)” value ([9]; 2.50 mg/kg p.o.) was 9.1, the “Survival rate (animals)” value ([9]; 2.50 mg/kg p.o.) was 11/11 and the “Survival rate … (percentage)” value ([9]; 2.50 mg/kg p.o.) was 100. For the same compound, the “significance of difference from non treatment 1” value ([9]; 2.50 mg/kg p.o.) was “markedly significant difference”, the “p (significant difference from homochlorcyclizine)” value [9, 15] was under 0.02 and the “z2 (statistical value)” value [9, 15] was 2.332. For the same compound, the “z1 (statistical value)” value ([9]; 2.50 mg/kg p.o. vs non treatment 1) was over 5, the “A/B: No. of collapsed / No. of provoked guinea pigs” value ([9]; 10.0 mg/kg p.o.) was 0/6 and the “A/B: collapsed guinea pigs … (percentage)” value ([9]; 10.0 mg/kg p.o.) was 0. The “Survival rate (animals)” value ([9]; 10.0 mg/kg p.o.) was 6/6, the “Survival rate … (percentage)” value ([9]; 10.0 mg/kg p.o.) was 100 and the “p (significant difference from non treatment 2)” value ([9]; 10.0 mg/kg p.o.) was under 0.0005. For the same compound, the “p for z2 (significant difference from non treatment 1 (so in the source))” value ([9]; 10.0 mg/kg p.o.) was under 0.005, the “z2 (statistical value)” value ([9]; 10.0 mg/kg p.o. vs non treatment 1 (so in the source)) was 2.844 and the “z1 (statistical value)” value ([9]; 10.0 mg/kg p.o. vs non treatment 2) was 3.321. For the same compound, the “inhibition of asthma attack compared to non treatment and homochlorcyclizine” value ([9]; oral, 2 hrs. prior to histamine) was “markedly and significantly inhibits asthma attack”.
